In patent publication US9315458B2, “Nitrogen-containing heterocyclic compound” (Takeda Pharmaceutical Company Limited, priority 2014, dated 2016):

Target: T1, human M1 receptor (hCHRM1) (Homo sapiens, UniProt P11229)
T1 construct: expressed in transfected cells
T1 sequence (P11229 1-460): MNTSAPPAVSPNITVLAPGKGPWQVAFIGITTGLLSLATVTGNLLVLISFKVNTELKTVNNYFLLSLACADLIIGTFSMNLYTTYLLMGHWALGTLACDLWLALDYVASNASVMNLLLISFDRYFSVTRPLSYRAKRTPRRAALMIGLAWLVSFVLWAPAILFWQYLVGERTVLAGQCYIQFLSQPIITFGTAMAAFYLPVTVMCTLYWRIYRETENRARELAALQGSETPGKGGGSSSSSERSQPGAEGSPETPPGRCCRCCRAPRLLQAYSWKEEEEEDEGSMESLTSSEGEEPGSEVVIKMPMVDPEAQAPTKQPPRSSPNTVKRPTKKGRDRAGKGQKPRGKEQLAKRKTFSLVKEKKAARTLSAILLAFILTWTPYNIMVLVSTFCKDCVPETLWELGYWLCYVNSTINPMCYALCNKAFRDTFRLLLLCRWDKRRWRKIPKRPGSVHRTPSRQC
Assay: Measurement of M1 receptor positive allosteric modulator (M1PAM) activity, calcium fluorescence (FLIPRtetra) with acetylcholine at EC20
Format: cell-based
Conditions: for activity (%) at 10 μM: 10 μM test compound, 100% = acetylcholine 1 μM, 0% = DMSO, acetylcholine at EC20; for EC50: inflection point of concentration-dependent curve, CHO-K1 cells expressing hCHRM1, acetylcholine at EC20 (final 0.6-0.8 nM), read-out: IP value
Protocol: The activity of a test compound in the presence of acetylcholine at EC20 concentration (final concentration 0.6-0.8 nM), which affords an action corresponding to about 20% of the maximum activity, was measured as PAM activity. The method is as follows. CHO-K1 cells stably expressing a human M1 receptor (hCHRM1) were plated on a 384-well black clear bottom plate (BD Falcon) at 5,000 cells/well, and cultured in an incubator at 37° C., 5% CO2 for 1 day. The medium in the cell plate was removed, and assay buffer A (Recording medium (DOJINDO LABORATORIES), 0.1% BSA (Wako Pure Chemical Industries, Ltd.), 2.5 μg/mL Fluo-4 AM (DOJINDO LABORATORIES), 0.08% Pluronic F127 (DOJINDO LABORATORIES), 1.25 mM probenecid (DOJINDO LABORATORIES)) containing a calcium indicator was added at 30 μL/well. The cells were left standing in the incubator at 37° C., 5% CO2 for 30 min, and further left standing at room temperature for 30 min. A test compound prepared by diluting with assay buffer B (HBSS (Invitrogen), 20 mM HEPES (Invitrogen), 0.1% BSA) containing 2.4-3.2 nM acetylcholine was added at 10 μL/well, and the fluorescence was measured by FLIPRtetra (Molecular Devices) for 1 min every 1 second. With the definition that the amount of change in the fluorescence on addition of acetylcholine (final concentration 1 μM) is 100% and that on addition of DMSO instead of a test compound is 0%, the activity (%) of the test compound was calculated, and the inflection point in the concentration-dependent curve of the test compound was calculated as IP values.

SMILES | activity (%) at 10 μM | EC50
Cc1c(Cc2ccc(-c3cnn(C)c3)cc2)cc2c(c1C)CN([C@H]1CCCC[C@@H]1O)C2=O (racemic) [Example 89, rac-2-(trans-2-hydroxycyclohexyl)-4,5-dimethyl-6-(4-(1-methyl-1H-pyrazol-4-yl)benzyl)isoindolin-1-one] | 94% | 5.7 nM
Cc1cc(-c2ccc(Cc3cc4c(cc3C)CN([C@H]3CCC[C@@H]3O)C4=O)cc2)cnn1 (racemic) [Example 91, rac-2-(trans-2-hydroxycyclopentyl)-5-methyl-6-(4-(6-methylpyridazin-4-yl)benzyl)isoindolin-1-one] | 95% | 38 nM
COc1c(Cc2ccc(-n3cccn3)cc2)cc2c(c1Cl)CN([C@H]1CCC[C@@H]1O)C2=O (racemic) [Example 92, rac-4-chloro-2-(trans-2-hydroxycyclopentyl)-5-methoxy-6-(4-(1H-pyrazol-1-yl)benzyl)isoindolin-1-one] | 91% | 60 nM
Cc1c(Cc2ccc(-n3cccn3)cc2)cc2c(c1Cl)CN([C@H]1CCCC[C@@H]1O)C2=O (racemic) [Example 93, rac-4-chloro-2-(trans-2-hydroxycyclohexyl)-5-methyl-6-(4-(1H-pyrazol-1-yl)benzyl)isoindolin-1-one] | 94% | 5.6 nM
Cc1nn(C)cc1-c1ccc(Cc2cc3c(c(C)c2C)CN([C@H]2CCCC[C@@H]2O)C3=O)c(F)c1 (racemic) [Example 94, rac-6-(4-(1,3-dimethyl-1H-pyrazol-4-yl)-2-fluorobenzyl)-2-(trans-2-hydroxycyclohexyl)-4,5-dimethylisoindolin-1-one] | 92% | 9.5 nM
Cc1nn(C)cc1-c1ccc(Cc2cc3c(c(C)c2C)CN([C@H]2CCC[C@@H]2O)C3=O)c(F)c1 (racemic) [Example 95, rac-6-(4-(1,3-dimethyl-1H-pyrazol-4-yl)-2-fluorobenzyl)-2-(trans-2-hydroxycyclopentyl)-4,5-dimethylisoindolin-1-one] | 92% | 26 nM
COc1c(Cc2ccc(-n3cccn3)cc2)cc2c(c1F)CN([C@H]1CCCC[C@@H]1O)C2=O (racemic) [Example 97, rac-4-fluoro-2-(trans-2-hydroxycyclohexyl)-5-methoxy-6-(4-(1H-pyrazol-1-yl)benzyl)isoindolin-1-one] | 96% | 5.3 nM
Cc1cc(-c2ccc(Cc3cc4c(cc3C)CN([C@H]3CCCC[C@@H]3O)C4=O)cc2)ccn1 (racemic) [Example 99, rac-2-(trans-2-hydroxycyclohexyl)-5-methyl-6-(4-(2-methylpyridin-4-yl)benzyl)isoindolin-1-one] | 103% | 16 nM
Cc1cc(-c2ccc(Cc3cc4c(cc3C)CN([C@H]3CCC[C@@H]3O)C4=O)cc2)ccn1 (racemic) [Example 100, rac-2-(trans-2-hydroxycyclopentyl)-5-methyl-6-(4-(2-methylpyridin-4-yl)benzyl)isoindolin-1-one] | 101% | 94 nM
Cc1c(Cc2ccc(-n3cccn3)cc2)cc2c(c1Cl)CN([C@H]1CCC[C@@H]1O)C2=O (racemic) [Example 102, rac-4-chloro-2-(trans-2-hydroxycyclopentyl)-5-methyl-6-(4-(1H-pyrazol-1-yl)benzyl)isoindolin-1-one] | 91% | 13 nM
CCc1cc2c(cc1Cc1ccc(-c3cn(C)nn3)cc1)C(=O)N([C@H]1CCC[C@@H]1O)C2 (racemic) [Example 106, rac-5-ethyl-2-(trans-2-hydroxycyclopentyl)-6-(4-(1-methyl-1H-1,2,3-triazol-4-yl)benzyl)isoindolin-1-one] | 92% | 11 nM
Cc1c(Cc2ccc(C#N)cc2F)cc2c(c1C)CN([C@H]1COCC[C@@H]1O)C2=O (racemic) [Example 112, rac-3-fluoro-4-((2-(trans-4-hydroxytetrahydro-2H-pyran-3-yl)-6,7-dimethyl-3-oxo-2,3-dihydro-1H-isoindol-5-yl)methyl)benzonitrile] | 93% | 30 nM
Cc1c(Cc2ccc(C(N)=O)cc2F)cc2c(c1C)CN([C@H]1COCC[C@@H]1O)C2=O (racemic) [Example 113, rac-3-fluoro-4-((2-(trans-4-hydroxytetrahydro-2H-pyran-3-yl)-6,7-dimethyl-3-oxo-2,3-dihydro-1H-isoindol-5-yl)methyl)benzamide] | 82% | 1.5 nM
COc1ccc(Cc2cc3c(c(C)c2C)CN([C@H]2COCC[C@@H]2O)C3=O)cc1 (racemic) [Example 165, rac-2-(trans-4-hydroxytetrahydro-2H-pyran-3-yl)-6-(4-methoxybenzyl)-4,5-dimethyl-2,3-dihydro-1H-isoindol-1-one] | 103% | 36 nM
Cc1cc2c(cc1Cc1ccc(-n3cccn3)cc1)C(=O)N([C@H]1CCC[C@@H]1O)C2 [Example 4, 2-((1S,2S)-2-hydroxycyclopentyl)-5-methyl-6-(4-(1H-pyrazol-1-yl)benzyl)isoindolin-1-one] | 98% | 19 nM
Cc1cc2c(cc1Cc1ccc(-n3cccn3)cc1)C(=O)N(c1c(F)cccc1C#N)C2 [Example 7, 3-fluoro-2-(5-methyl-1-oxo-6-(4-(1H-pyrazol-1-yl)benzyl)-1,3-dihydro-2H-isoindol-2-yl)benzonitrile] | 107% | 180 nM
Cc1cc2c(cc1Cc1ccc(-n3cccn3)cc1)C(=O)N(C1CCOCC1)C2 [Example 8, 5-methyl-6-(4-(1H-pyrazol-1-yl)benzyl)-2-(tetrahydro-2H-pyran-4-yl)isoindolin-1-one] | 90% | 290 nM
Cc1c(Cc2ccc(-c3ccn(C)n3)cc2)cc2c(c1C)CN([C@H]1CCC[C@@H]1O)C2=O [Example 13, 2-((1S,2S)-2-hydroxycyclopentyl)-4,5-dimethyl-6-(4-(1-methyl-1H-pyrazol-3-yl)benzyl)isoindolin-1-one] | 104% | 7.9 nM
Cc1c(Cc2ccc(-c3cn(C)nn3)cc2)cc2c(c1C)CN(C[C@@H]1CCCO1)C2=O [Example 14, 4,5-dimethyl-6-(4-(1-methyl-1H-1,2,3-triazol-4-yl)benzyl)-2-((2S)-tetrahydrofuran-2-ylmethyl)isoindolin-1-one] | 94% | 1.2 nM
Cc1c(Cc2ccc(-n3cccn3)cc2)cc2c(c1C)CN(CC(C)(C)O)C2=O [Example 15, 2-(2-hydroxy-2-methylpropyl)-4,5-dimethyl-6-(4-(1H-pyrazol-1-yl)benzyl)isoindolin-1-one] | 103% | 11 nM
Cc1c(Cc2ccc(-n3cccn3)cc2F)cc2c(c1C)CN([C@H]1CCC[C@@H]1O)C2=O [Example 16, 6-(2-fluoro-4-(1H-pyrazol-1-yl)benzyl)-2-((1S,2S)-2-hydroxycyclopentyl)-4,5-dimethylisoindolin-1-one] | 94% | 12 nM
Cc1c(Cc2ccc(Cl)cc2)cc2c(c1C)CN([C@H]1COCC[C@@H]1O)C2=O [Example 17, 1,5-anhydro-2-(6-(4-chlorobenzyl)-4,5-dimethyl-1-oxo-1,3-dihydro-2H-isoindol-2-yl)-2,4-dideoxy-L-threo-pentitol] | 90% | 18 nM
